Data on two compounds can be found in patent US7078059B2, “Treatment of bone diseases” (Shire Holdings AG, priority 2000, dated 2006).

SMILES strings stand for the structures.

Assay [1] has as its system mouse bone marrow derived osteoprogenitor cells. The assay can be described thus: In vitro osteoblast differentiation assay (cellular alkaline phosphatase). The class given is cell-based. Particulars: LA number = ng/ml lanthanum; lanthanum (III) ion = 100-15000 ng/ml; 17-estradiol 10^−10 M. The text has this:
We have established a culture model in which mouse bone marrow derived osteoprogenitor cells first proliferate and then differentiate to osteoblasts capable of forming mineralized bone nodules (Qu et al. 1998, Qu et al. 1999). We confirmed this by following the expression of several markers of the osteoblastic phenotype and by studying the morphology of cultures at light and electron microscopic level. […] Thus, this culture system fulfills requirements of an in vitro model useful for studying differentiation of osteoprogenitor cells into bone synthesizing osteoblasts. […] Animals were killed by cervical dislocation. Both femora were removed and the soft tissues were detached aseptically. Metaphyses from both ends were cut off and bone marrow cells were collected by flushing the diaphysis with culture medium: phenol red-free-α-modified essential medium (α-MEM (Gibco BRL, Paisley, UK)). […] The cells were cultured for 6 days and half of the media […] days. […] Cells were washed with warm PBS and adherent cells were detached using trypsin-EDTA. […] The test substances were added at the beginning of the secondary culture without estrogen, and every time when the medium was changed. The number of osteoblasts formed was determined by measuring cellular alkaline phosphatase (ALP) activity in the culture. […] Louis, Mo., USA), and overnight freezing. ALP activity was determined colorimetrically using p-nitrophenylphosphate as substrate at pH 9.7 and determining the optical density at 405 nm. In parallel, protein contents of the wells were determined by the BIO-RAD protein assay, and the specific ALP activity is expressed as units/mg protein. […] Osteoblast differentiation was determined by measuring cellular alkaline phosphatase (ALP) activities and total protein amounts from cell lysates. The ALP activities were divided with the corresponding protein amounts to obtain specific activities of ALP. The results are shown as relative specific activities obtained by dividing each individual value with the mean value of the baseline group.

Assay [2] relates to mature osteoblasts. The assay can be described thus: In vitro bone formation assay (calcium deposition into bone nodules). Type of assay: cell-based, mouse. Particulars: LA number = ng/ml lanthanum; lanthanum (III) / lanthanum (III) ion = all concentrations tested, 100 to 15,000 ng/ml; 17-estradiol 10^−10M. As for the experimental part: The activity of mature osteoblasts can be determined by quantifying their ability to form mineralized bone matrix. This is done by demineralizing the formed bone matrix, and determining the amount of calcium released. Thus, this culture system fulfills requirements of an in vitro model useful for studying the bone formation activity of mature osteoblasts. […] At the end of the culture, the amount of calcium deposited during the culture period was determined, and the amount of bone formation (calcium deposition) calculated. […] Extracts of 50 μl were complexed with 1 ml determined o-cresol-phthalein-complexon. The colorimetric reaction was determined at 570 nm in a spectrophotometer. Absolute calcium concentrations were determined by comparison with a calibrated standard provided by the vendor. In this study, the effect of lanthanum carbonate on bone formation was tested. […] The amount of bone formation was determined by measuring the amount of calcium deposited into bone nodules formed by mature osteoblasts. The results are shown as the amount of calcium released (mmol/L) from the bone nodules after HCl extraction. The baseline values are too low to show the results using relative amounts as was done in the other assays.

In assay [3] the test system is osteoclasts cultured on bone slices. Nature of the assay: In vitro bone resorption assay (osteoclasts on bovine bone slices, CrossLaps). Particulars: LA number = ng/ml lanthanum; lanthanum (III) ion = any of the concentrations tested (100-15000 ng/ml); bafilomycin Al 10 nM. The class given is cell-based, rat. The text has this: The method of osteoclast culture on bone slices was originally described by Boyde et al. (1984) and by Chambers et al. (1984). For cell culture, we used a method slightly modified from the original methods (Lakkakorpi et al. 1989, Lakkakorpi and Väänänen, 1991). The rate of bone resorption in the cultures was originally determined by counting the number of resorption pits on each bone or dentine slice using a microscope with phase contrast objectives (Sundquist et al. 1990). Later, the pits were visualized using Wheat Germ Agglutinin lectin that specifically binds to the resorbed area in bone (Selander et al. 1994), making it possible to quantify the total resorbed area using a microscope and computer-assisted image analysis system (Laitala and Väänänen 1994, Hentunen et al. 1995). We used a commercially available method (CrossLaps for cultures, Osteometer Biotech, Herlev, Denmark) to detect the amount of collagen cross-links released into the culture medium as an index of the bone resorption rate (Bagger et al., 1999).
The study protocol uses a method where osteoclasts are cultured on bone slices and allowed to resorb bone. The system is ideal for determining the effect of drug candidates on the bone resorbing activity of osteoclasts. Drug candidates are added into the cell cultures at the beginning of the culture period, and the osteoclasts allowed to resorb bone for 3 days. The amount of bone resorbed during the culture period is determined and compared to the amount of bone resorbed in control cultures (those cultured in the absence of drug candidates).
Transverse 0.1 mm thick slices of cortical bone were cut from the diaphysis of fresh bovine femurs (Atria Slaughterhouse, Oulu, Finland) using a low-speed diamond saw, cleaned by ultrasonication in multiple changes of sterile distilled water, and stored at 4° C. before use. Long bones were removed from 1-day-old rat pups killed by decapitation. […] The resulting suspension of dispersed cells and bone fragments was agitated using a plastic pipette. Larger fragments were allowed to sediment for a few seconds and the supernatant was seeded onto the bone slices pre-wetted in the medium. After a settling period of 30 minutes at 37° C., the bone slices were washed by dipping in fresh medium, and then transferred to wells in 24-well culture dishes containing osteoclast culture medium. The bone slices were incubated in a humidified atmosphere of 95% air and 5% carbon dioxide at 37° C. for 72 hours.
After the culture period, the amount of bone resorption was determined by measuring the amount of collagen cross-links released into the culture medium using a commercial kit (CrossLaps for cultures, Osteometer Biotech) according to the manufacturer s instructions. The number of osteoclasts in each culture was determined by microscopic counting of the amount of TRAP-positive multinuclear cells, and the results are given as the number of collagen cross-links released per one osteoclast.
In the bone resorption assay, the amount of medium CrossLaps (nM) released into the culture medium was determined and the number of osteoclasts in the corresponding cultures calculated. The medium CrossLaps amounts were divided with the osteoclast numbers in the corresponding cultures, and the results are given on Table 1 as relative medium CrossLaps amounts per osteoclasts. The relative values were obtained by dividing each individual value with the mean value of the baseline group.

Consider `C[C@]12CC[C@@H]3c4ccc(O)cc4CC[C@H]3[C@@H]1CC[C@@H]2O` [17-β estradiol, reference compound], for which the “Effect on osteoblast differentiation, in words” value in assay [1] is listed as “activated osteoblast differentiation significantly”. Moreover, in assay [2], the “Effect on bone formation activity of mature osteoblasts, in words” value is listed as “activated bone formation significantly”.
With `CO/C1=C\C(C)=C\[C@@H](C)[C@@H](O)[C@@H](C)C/C(C)=C/C=C/[C@H](OC)[C@@H]([C@@H](C)[C@@H](O)[C@H](C)[C@@]2(O)C[C@@H](O)[C@H](C)[C@@H](C(C)C)O2)OC1=O` [Bafilomycin Al, reference compound], the “Effect on bone resorption / bone resorbing activity of mature osteoclasts, in words” value in assay [3] is “completely inhibited bone resorption”.
